Assay results reported in US9040507B2, “Method for treating inflammatory conditions” (Novelmed Therapeutics, Inc., priority 2008, dated 2015).
Entries after “also recorded” stand apart in the source; their conditions may differ.

Legend:
[1] = test system: mouse collagen-induced arthritis (CIA); assay: Mouse collagen-induced arthritis (CIA) model; type: in vivo, DBA/J1 mice; details: dosing from day 18
Description: Male DBA/J1 mice (7-9 weeks old from Jackson Labs, Bar Harbor, Me., USA) were used. The CIA study using mice of same age, strain and source was performed at Boulder BioPATH Inc as described below. Male DBA/J1 mice were shaved at the base of the tail and injected with 0.1 ml emulsion consisting of a 1 to 1 (1 mg/l mg) mixture of type II chicken collagen with Mycobacterium butyricum (Difco) as an adjuvant. Three weeks later, the mice were boosted with another 0.1 ml injection of emulsion at the base of the tail to induce disease. Dosing started at day 18 while the last boost to induce the disease was at day 21. The mice were scored in a blinded manner twice weekly for 3 weeks for signs of arthritis in each paw according to the following scale: clinical signs were evaluated using the following scale: 0=normal; 1=one joint affected or mild diffuse erythema and swelling; 2=two joints affected or mild diffuse erythema and swelling; 3=three joints affected or mild diffuse erythema and swelling; 4=four joint affected or marked diffuse erythema and swelling; and 5=severe erythema and severe swelling. Upon study completion (day 28), mice were killed with CO2.

[2] = test system: rat adjuvant induced arthritis (AIA), established disease; details: male rats, 2.5 mg/kg IP every other day from day 16 to day 40, left and right paw; listed as TC 5, 2.5 mg/kg
[3] = test system: rat adjuvant induced arthritis (AIA); assay: Prophylactic model of rat adjuvant induced arthritis (AIA); details: for joint damage (radiographs; CT scan at 2.5 mg/kg): 2.5 mg/kg/day and 500 μg/kg/day IP; for paw inflammation (paw volume), dose effect: 2.5 mg/kg/day and 500 μg/kg/day IP from day 10, left and right paw; for joint histology (H&E staining): limb at study end
[4] = test system: rat adjuvant induced arthritis (AIA); details: in vivo, ip, 5 mg/kg/day
[5] = male rats, 500 μg/kg/day IP from day 10
[6] = male rats, 10 mg/kg/day IP from day 10 for 14 days, left and right paw, 10 mg/kg/day
[7] = male rats, 10 mg/kg/day IP, 10 mg/kg/day
[8] = male rats, 10 mg/kg/day IP, limbs at study end, 10 mg/kg/day
[9] = male rats, 5 mg/kg/day IP from day 10 for 14 days, right paw, 5 mg/kg/day

c1ccc(-c2ccc(C(c3ccccc3)n3ccnc3)cc2)cc1 (stereo not drawn) [TC5, 1-[phenyl(4-phenylphenyl)methyl]-1H-imidazole]
clinical scoring of the paws (clinical signs of arthritis) ([1]; male mice, 2.5 and 0.25 mg/kg IP): significant prevention of arthritis with inhibition comparable to ENBREL
clinical scoring of the paws (clinical signs of arthritis) ([1]; male mice, 2.5 and 0.25 mg/kg IP, listed as TC 5): inhibited clinical signs of the disease comparable to ENBREL treated groups
clinical scoring of the paws (clinical signs of arthritis) ([1]; male mice, 2.5 and 0.25 mg/kg IP, listed as bifonazole): can reduce paw inflammation
paw inflammation (paw volume) [2]: halted the progression of the disease
paw inflammation (paw volume) [3, 5]: maximum inhibition observed at the 500 μg/kg/day
paw inflammation (paw volume) ([3]; male rats, 500 μg/kg/day IP from day 10, listed as TC 5): also reduced paw inflammation
paw inflammation (paw volume) ([3]; male rats, 2.5 mg/kg/day IP from day 10): demonstrated maximal effect similar to ENBREL
joint damage (radiographs; CT scan at 2.5 mg/kg) ([3]; male rats): effective is preserving the joint damage at both concentrations; also recorded: able to prevent significant joint damage compared to the disease control in a dose dependent manner
paw inflammation (paw volume), dose effect ([3]; male rats): can prevent development and progression of rat adjuvant induced arthritis dose dependently
paw inflammation (paw volume) [3, 6]: reduced paw inflammation to control levels similar to those observed for ENBREL
paw inflammation (paw volume) ([3]; male rats, 10 mg/kg/day IP from day 10 for 14 days, left and right paw, listed as bifonazole, 10 mg/kg/day): can reduce paw inflammation
joint histology (H&E staining) [3, 7]: minimal inflammation, reduced bone proliferation, preservation of the cartilage, and preservation of the synovial membrane; also recorded: significant preservation of the synovium membrane (white space), significant preservation of the cartilage (space between the 2 blue lines), and minor bone proliferation
joint damage (radiographs, CT scans) [3, 8]: prevents joint damage similar to those from ENBREL treated group; also recorded: able to prevent significant joint damage compared to the disease control; also recorded: significant reduction in bone damage in treated animals compared to diseased animals
joint damage (radiographs, CT scans) ([3]; male rats, 10 mg/kg/day IP, limbs at study end, listed as bifonazole, 10 mg/kg/day): can reduce paw inflammation (FIGS. 1-2) and ankle damage
joint damage (radiographs; CT scan of 500 μg/Kg oral group) ([3]; male rats, 5, 2.5 and 0.5 mg/kg/day oral gavage): effective in preserving the joint damage at all three concentrations tested; also recorded: significant reduction in bone damage in treated animals compared to diseased animals
paw inflammation (paw volume) ([3]; male rats, 5, 2.5 and 0.5 mg/kg/day oral gavage from day 10): not as effective as the IP dosing
paw inflammation (paw volume) ([3]; male rats, 5, 2.5 and 0.5 mg/kg/day oral gavage from day 10, listed as TC 5): dose dependent with the highest dose demonstrated maximal effect

COc1ccc(C(Cl)=C(c2ccc(OC)cc2)c2ccc(OC)cc2)cc1 [TC10, 1,1′,1″-(2-chloroethene-1,1,2-triyl)tris(4-methoxybenzene)]
clinical scoring of the paws (clinical signs of arthritis) ([1]; male mice, 25, 2.5 and 0.25 mg/kg IP): All three doses inhibited clinical signs of the disease; also recorded: significant prevention of arthritis with inhibition greater than ENBREL at all tested doses
clinical scoring of the paws (clinical signs of arthritis) ([1]; male mice, 25, 2.5 and 0.25 mg/kg IP, listed as chlorotrianisene): can reduce paw inflammation
weight loss [4]: near negligible
joint damage (radiographs) ([3]; female rats, 2.5 and 0.5 mg/kg/day IP): effective in preserving the joint damage at both concentrations tested; also recorded: able to prevent significant joint damage compared to the disease control
paw inflammation (paw volume) ([3]; female rats, 2.5 and 0.5 mg/kg/day IP from day 10 for 12 days, listed as TC 10): inhibited at both doses
paw inflammation (paw volume) ([3]; female rats, 5 and 2.5 mg/kg/day oral): prevented paw inflammation; also recorded: significant reduction in paw inflammation
joint damage (radiographs) ([3]; female rats, oral, 5 mg/kg/day): effective in female rates in preserving joint damage
paw inflammation (paw volume) [3, 5]: also reduced paw inflammation; also recorded: comparable results to ENBREL
paw inflammation (paw volume) ([3]; male rats, 2.5 mg/kg/day IP from day 10, 2.5 mg/kg/day): maximal effect better than ENBREL with nearly complete inhibition of paw inflammation; also recorded: near complete prevention of arthritis bringing paw inflammation near the non-disease control; also recorded: maximum inhibition observed at 2.5 mg/kg/day dose bringing inflammation down to the non-disease control level
joint damage (radiographs; CT scan at 2.5 mg/kg) ([3]; male rats): effective is preserving the joint damage at both concentrations; also recorded: shows preservation of the joint damage; also recorded: able to prevent significant joint damage at both doses 2.5 mg and 0.5 mg compared to the disease control in a dose dependent manner; also recorded: Joint damage was almost completely prevented with no joint damage
paw inflammation (paw volume), dose effect ([3]; male rats): can prevent development and progression of rat adjuvant induced arthritis dose dependently with maximum effect observed at 2.5 dose
paw inflammation (paw volume) [3, 9]: reduced paw inflammation to control levels similar to those observed for ENBREL
paw inflammation (paw volume) ([3]; male rats, 5 mg/kg/day IP from day 10 for 14 days, right paw, listed as NM2026, 5 mg/kg/day): able to inhibit paw inflammation similar to the effects of ENBREL
paw inflammation (paw volume) ([3]; male rats, 5 mg/kg/day oral gavage from day 10, 5 mg/kg/day): can prevent development and progression of rat adjuvant induced arthritis; also recorded: not as effective as the IP dosing
paw inflammation (paw volume) ([3]; male rats, 5 mg/kg/day oral gavage from day 10, listed as TC 10, 5 mg/kg/day): inhibited paw inflammation to ENBREL controls
joint damage (radiographs, CT scans) ([3]; male rats, 5 mg/kg/day oral gavage, 5 mg/kg/day): effectively preserves the joint damage; also recorded: able to prevent significant joint damage compared to the disease control at 5 mg/kg dose tested; also recorded: near complete prevention of joint destruction at 5 mg/kg/day compared to the diseased control
paw inflammation (paw volume) [3, 6]: can prevent development and progression of rat adjuvant induced arthritis comparable to the effects of ENBREL; also recorded: able to inhibit paw inflammation similar to the effects of ENBREL
paw inflammation (paw volume) ([3]; male rats, 10 mg/kg/day IP from day 10 for 14 days, left and right paw, listed as TC 10, 10 mg/kg/day): reduced paw inflammation to control levels similar to those observed for ENBREL
joint histology (H&E staining) [3, 7]: minimal inflammation, reduced bone proliferation, preservation of the cartilage, and preservation of the synovial membrane; also recorded: significant preservation of the synovium membrane (white space), significant preservation of the cartilage (space between the 2 blue lines), and minor bone proliferation
joint damage (radiographs, CT scans) [3, 8]: prevents joint damage similar to those from ENBREL treated group; also recorded: able to prevent significant joint damage compared to the disease control; also recorded: significant reduction in bone damage in treated animals compared to diseased animals

CC/C(=C(\c1ccccc1)c1ccc(OCCN(C)C)cc1)c1ccccc1 [Tamoxifen, (Z)-2-[4-(1,2-diphenylbut-1-enyl)phenoxy]-N,N-dimethyl-ethanamine]
paw inflammation (paw volume) [3, 9]: reduced paw inflammation to control levels similar to those observed for ENBREL
paw inflammation (paw volume) ([3]; male rats, 5 mg/kg/day IP from day 10 for 14 days, right paw, listed as tamoxifen, 5 mg/kg/day): can reduce paw inflammation
